Laboratory results as given in ChEMBL document CHEMBL1128887, “3-benzyl-quinolones: Novel, potent inhibitors of mammalian topoisomerase II” (Bioorg Med Chem Lett, 1995).

Assays:
P388 = experiment: In vitro cytotoxicity against P388 mouse leukemia cells; type: functional, cell-based
DNA topoisomerase II = DNA topoisomerase II (Homo sapiens, UniProt P11388+Q02880); experiment: Inhibitory activity against HeLa cell Topoisomerase II; type: cell-based
Mus musculus [1] = experiment: In vivo antitumor activity was measured as tumor growth inhibition in BDF1 male mice implanted with murine pancreatic adenocarcinoma (Panc 03) at dose schedule qd 3-11 administered iv; type: functional
Mus musculus [2] = experiment: In vivo antitumor activity was measured as maximum tolerated dose in BDF1 male mice implanted with murine pancreatic adenocarcinoma (Panc 03) at dose schedule qd 3-11 administered iv; type: functional
Mus musculus [3] = experiment: In vivo antitumor activity was measured as maximum tolerated dose in BDF1 male mice implanted with murine pancreatic adenocarcinoma (Panc 03) at dose schedule qd 3-9 administered sc; type: functional
Mus musculus [4] = experiment: In vivo antitumor activity was measured as tumor growth inhibition in BDF1 male mice implanted with murine pancreatic adenocarcinoma (Panc 03) at dose schedule qd 3-9 administered sc; type: functional
Mus musculus [5] = experiment: In vivo antitumor activity was measured as tumor growth inhibition in BDF1 male mice implanted with murine pancreatic adenocarcinoma (Panc 03) at dose schedule qd 4-11 administered iv; type: functional
Mus musculus [6] = experiment: In vivo antitumor activity was measured as maximum tolerated dose in BDF1 male mice implanted with murine pancreatic adenocarcinoma (Panc 03) at dose schedule qd 4-11 administered iv; type: functional
Nucleic Acid = experiment: Compound was evaluated for its activity against bacterial DNA gyrase; type: nucleic-acid assay, Bacteria
Mus musculus [7] = experiment: In vivo antitumor activity was measured as tumor growth inhibition in BDF1 male mice implanted with murine pancreatic adenocarcinoma (Panc 03) at dose schedule qd 3,4,7,10 administered iv; type: functional
Mus musculus [8] = experiment: In vivo antitumor activity was measured as maximum tolerated dose in BDF1 male mice implanted with murine pancreatic adenocarcinoma (Panc 03) at dose schedule qd 3,4,7,10 administered iv; type: functional
Mus musculus [9] = experiment: In vivo antitumor activity was measured as maximum tolerated dose in BDF1 male mice implanted with murine pancreatic adenocarcinoma (Panc 03) at dose schedule qd 3, bid 4-9; sc bid 10,11 administered iv; type: functional
Mus musculus [10] = experiment: In vivo antitumor activity was measured as tumor growth inhibition in BDF1 male mice implanted with murine pancreatic adenocarcinoma (Panc 03) at dose schedule qd 3, bid 4-9; sc bid 10,11 administered iv; type: functional
Mus musculus [11] = experiment: In vivo antitumor activity was measured as maximum tolerated dose in BDF1 male mice implanted with murine pancreatic adenocarcinoma (Panc 03) at dose schedule qd 3-12 administered sc; type: functional
Mus musculus [12] = experiment: In vivo antitumor activity was measured as tumor growth inhibition in BDF1 male mice implanted with murine pancreatic adenocarcinoma (Panc 03) at dose schedule qd 3-12 administered sc; type: functional
Mus musculus [13] = experiment: In vivo antitumor activity was measured as maximum tolerated dose in BDF1 male mice implanted with murine pancreatic adenocarcinoma (Panc 03) at dose schedule qd 4-9 administered sc; type: functional
Mus musculus [14] = experiment: In vivo antitumor activity was measured as tumor growth inhibition in BDF1 male mice implanted with murine pancreatic adenocarcinoma (Panc 03) at dose schedule qd 4-9 administered sc; type: functional
Mus musculus [15] = experiment: In vivo antitumor activity was measured as tumor growth inhibition in BDF1 male mice implanted with murine pancreatic adenocarcinoma (Panc 03) at dose schedule qd 4,6,8,10,12,14,16 administered iv; type: functional
Mus musculus [16] = experiment: In vivo antitumor activity was measured as maximum tolerated dose in BDF1 male mice implanted with murine pancreatic adenocarcinoma (Panc 03) at dose schedule qd 4,6,8,10,12,14,16 administered iv; type: functional

Row | Structure (SMILES) | IC50 (P388) [nM] | EC50 (DNA topoisomerase II) [nM] | also measured
1 | COc1ccc(Cc2cn(C3CC3)c3c(F)c(-c4cc(C)nc(C)c4)c(F)cc3c2=O)cc1 | 21000 | 14000 | –
2 | Cc1cc(-c2c(F)cc3c(=O)c(Cc4cccc5ccccc45)cn(C4CC4)c3c2F)cc(C)n1 | – | > 210000 | –
3 | Cc1cc(-c2c(F)cc3c(=O)c(Cc4c[nH]cn4)cn(C4CC4)c3c2F)cc(C)n1 | 390 | 1600 | –
4 | Cc1cc(-c2c(F)cc3c(=O)c(Cc4ccccc4NC(=O)C(F)(F)F)cn(C4CC4)c3c2F)cc(C)n1 | – | 4700 | –
5 | Cc1cc(-c2c(F)cc3c(=O)c(Cc4ccccc4O)cn(C4CC4)c3c2F)cc(C)n1 | 670 | 330 | T/C (Mus musculus [1]): 5%; MTD (Mus musculus [2]): 225 mg/kg
6 | Cc1cc(-c2c(F)cc3c(=O)c(Cc4cc(O)ccc4O)cn(C4CC4)c3c2F)cc(C)n1 | 360 | 160 | –
7 | Cc1cc(-c2c(F)cc3c(=O)ccn(C4CC4)c3c2F)cc(C)n1 | – | – | MTD (Mus musculus [3]): 2410 mg/kg; T/C (Mus musculus [4]): >100%
8 | Cc1cc(-c2c(F)cc3c(=O)c(Cc4c(O)cc(O)cc4O)cn(C4CC4)c3c2F)cc(C)n1 | 470 | 98 | –
9 | Cc1cc(-c2c(F)cc3c(=O)c(Cc4c(O)cccc4O)cn(C4CC4)c3c2F)cc(C)n1 | 250 | 96 | T/C (Mus musculus [5]): 0%; MTD (Mus musculus [6]): 12 mg/kg; EC50 (Nucleic Acid): 140 nM
10 | Cc1cc(-c2c(F)cc3c(=O)c(Cc4ccncc4)cn(C4CC4)c3c2F)cc(C)n1 | – | 9100 | –
11 | Cc1cc(-c2c(F)cc3c(=O)c(Cc4ccc[nH]4)cn(C4CC4)c3c2F)cc(C)n1 | 930 | 5100 | –
12 | Cc1cc(-c2c(F)cc3c(=O)c(Cc4ccccc4C(=O)O)cn(C4CC4)c3c2F)cc(C)n1 | – | 200000 | –
13 | Cc1cc(-c2c(F)cc3c(=O)c(Cc4ccc(O)cc4)cn(C4CC4)c3c2F)cc(C)n1 | 1500 | 1200 | –
14 | Cc1cc(-c2c(F)cc3c(=O)c(Cc4ccccc4NS(C)(=O)=O)cn(C4CC4)c3c2F)cc(C)n1 | – | 3300 | –
15 | Cc1cc(-c2c(F)cc3c(=O)c(Cc4ccc(N)cc4)cn(C4CC4)c3c2F)cc(C)n1 | – | 7200 | –
16 | CC(=O)Nc1ccccc1Cc1cn(C2CC2)c2c(F)c(-c3cc(C)nc(C)c3)c(F)cc2c1=O | – | 5100 | –
17 | Cc1cc(-c2c(F)cc3c(=O)c(Cc4ccc(N(C)C)cc4)cn(C4CC4)c3c2F)cc(C)n1 | – | > 210000 | –

Row | Structure (SMILES) | IC50 (P388) [nM] | EC50 (DNA topoisomerase II) [nM] | also measured
18 | Cc1cc(-c2c(F)cc3c(=O)c(Cc4cccc(O)c4O)cn(C4CC4)c3c2F)cc(C)n1 | 880 | 360 | –
19 | Cc1cc(-c2c(F)cc3c(=O)c(-c4ccccc4)cn(C4CC4)c3c2F)cc(C)n1 | – | > 120000 | –
20 | Cc1cc(-c2c(F)cc3c(=O)c(CC4CCCCC4)cn(C4CC4)c3c2F)cc(C)n1 | – | > 230000 | –
21 | Cc1cc(-c2c(F)cc3c(=O)c(Cc4ccccc4N)cn(C4CC4)c3c2F)cc(C)n1 | 2100 | 2100 | –
22 | Cc1cc(-c2c(F)cc3c(=O)c(Cc4ccccn4)cn(C4CC4)c3c2F)cc(C)n1 | – | 12000 | –
23 | COc1ccccc1Cc1cn(C2CC2)c2c(F)c(-c3cc(C)nc(C)c3)c(F)cc2c1=O | 37000 | 14000 | –
24 | Cc1cc(-c2c(F)cc3c(=O)c(Cc4ccc(Cl)cc4)cn(C4CC4)c3c2F)cc(C)n1 | 20000 | 7700 | –
25 | Cc1cc(-c2c(F)cc3c(=O)c(Cc4ccc(O)cc4O)cn(C4CC4)c3c2F)cc(C)n1 | 210 | 160 | T/C (Mus musculus [7]): 73%; MTD (Mus musculus [8]): 20 mg/kg
26 | Cc1cc(-c2c(F)cc3c(=O)c(Cc4cccc(O)c4)cn(C4CC4)c3c2F)cc(C)n1 | 2200 | 1100 | –
27 | COc1cccc(Cc2cn(C3CC3)c3c(F)c(-c4cc(C)nc(C)c4)c(F)cc3c2=O)c1 | 20000 | 14000 | –
28 | CC(=O)Nc1ccc(Cc2cn(C3CC3)c3c(F)c(-c4cc(C)nc(C)c4)c(F)cc3c2=O)cc1 | – | > 100000 | –
29 | Cc1cc(-c2c(F)cc3c(=O)c(CCc4ccccc4)cn(C4CC4)c3c2F)cc(C)n1 | – | > 120000 | –
30 | Cc1cc(-c2c(F)cc3c(=O)c(Cc4ncc[nH]4)cn(C4CC4)c3c2F)cc(C)n1 | 1100 | 1100 | MTD (Mus musculus [9]): 88 mg/kg; T/C (Mus musculus [10]): 21%
31 | Cc1cc(-c2c(F)cc3c(=O)c(Cc4ccccc4)cn(C4CC4)c3c2F)cc(C)n1 | 7300 | 3900 | MTD (Mus musculus [11]): 3749 mg/kg; T/C (Mus musculus [12]): >100%
32 | COc1cc(NS(C)(=O)=O)ccc1Nc1c2ccccc2nc2ccccc12 [AMSACRINE] | – | – | MTD (Mus musculus [13]): 48 mg/kg; T/C (Mus musculus [14]): 0%
33 | COc1cc([C@@H]2c3cc4c(cc3[C@@H](O[C@@H]3O[C@@H]5CO[C@@H](C)O[C@H]5[C@H](O)[C@H]3O)[C@H]3COC(=O)[C@H]23)OCO4)cc(OC)c1O [ETOPOSIDE] | – | – | T/C (Mus musculus [15]): 3%; MTD (Mus musculus [16]): 96 mg/kg
34 | Cc1cc(-c2c(F)cc3c(=O)c(C(=O)O)cn(C4CC4)c3c2F)cc(C)n1 [WIN-57294] | – | – | MTD (Mus musculus [11]): 600 mg/kg; T/C (Mus musculus [12]): 31%
